Data set [1] concerns the target T1, Peroxisome proliferator-activated receptor gamma (Homo sapiens, UniProt P37231).
T1 sequence (P37231 whole entry): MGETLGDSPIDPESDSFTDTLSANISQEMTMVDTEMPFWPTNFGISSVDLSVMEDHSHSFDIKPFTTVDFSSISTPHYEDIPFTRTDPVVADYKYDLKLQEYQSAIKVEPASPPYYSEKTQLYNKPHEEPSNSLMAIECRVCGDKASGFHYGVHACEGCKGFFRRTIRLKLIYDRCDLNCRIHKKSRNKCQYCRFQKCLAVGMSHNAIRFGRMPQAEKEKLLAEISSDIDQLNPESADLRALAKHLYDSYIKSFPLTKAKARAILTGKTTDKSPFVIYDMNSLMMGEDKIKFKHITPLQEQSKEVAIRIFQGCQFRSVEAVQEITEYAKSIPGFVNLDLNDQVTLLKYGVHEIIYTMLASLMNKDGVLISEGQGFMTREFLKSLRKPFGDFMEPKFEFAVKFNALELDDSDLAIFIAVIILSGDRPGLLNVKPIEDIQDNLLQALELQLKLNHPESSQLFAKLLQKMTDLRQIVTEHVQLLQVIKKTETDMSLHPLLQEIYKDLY
In words: Antagonist activity at GAL4-tagged human PPARgamma LBD expressed in human HepG2 cells assessed as inhibition of Rosiglitazone-induced receptor transactivation incubated for 20 to 22 hrs by luciferase reporter gene assay. In general terms: In a reporter assay the amount or activity of a reporter protein is the signal.

The target in data set [2] is T2, Peroxisome proliferator-activated receptor gamma (Homo sapiens) (UniProt P37231).
T2 sequence (whole entry): T1 sequence (P37231 whole entry)
In words: Effect on GAL4-tagged human PPARgamma LBD expressed in human HepG2 cells incubated for 20 to 22 hrs by luciferase reporter gene assay. It counts as cell-based.

A further data set has as its system HepG2. In words: Cytotoxicity against human HepG2 cells at >5 uM. Type of data set: cell-based.
The target of data set [3] is T3, Peroxisome proliferator-activated receptor alpha (Homo sapiens, UniProt Q07869).
T3 sequence (Q07869 whole entry): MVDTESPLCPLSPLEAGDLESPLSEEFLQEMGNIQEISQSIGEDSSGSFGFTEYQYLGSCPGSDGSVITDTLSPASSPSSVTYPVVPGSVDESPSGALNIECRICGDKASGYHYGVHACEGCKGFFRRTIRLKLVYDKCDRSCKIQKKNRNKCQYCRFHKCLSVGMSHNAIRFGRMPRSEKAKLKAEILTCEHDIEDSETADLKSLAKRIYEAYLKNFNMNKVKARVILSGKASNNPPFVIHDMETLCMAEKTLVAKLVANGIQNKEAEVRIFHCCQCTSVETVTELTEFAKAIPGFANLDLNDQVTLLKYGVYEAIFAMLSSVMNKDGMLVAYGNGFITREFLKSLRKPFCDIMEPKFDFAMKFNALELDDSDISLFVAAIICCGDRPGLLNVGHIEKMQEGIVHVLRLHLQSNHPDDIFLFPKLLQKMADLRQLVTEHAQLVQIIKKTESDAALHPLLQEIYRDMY
In words: Antagonist activity at GAL4-tagged human PPARalpha LBD expressed in human HepG2 cells assessed as inhibition of Wy14,643-induced receptor transactivation incubated for 20 to 22 hrs by luciferase reporter gene assay. Type of data set: cell-based.

The structures appear in SMILES notation.

As usually defined, the IC50 is the concentration that gives 50% inhibition. As for `CC(C)(Oc1ccc(CCOc2ccc(/N=N/c3ccccc3)cc2)cc1)C(=O)NS(=O)(=O)c1ccccc1`, the results for the IC50 in data set [1] and in data set [3] were 14 µM and 1.2 µM, respectively. The same compound had an Imax in data set [2] of 87%. For the same compound, the Activity entry in the data set with HepG2 was “Toxic”.
